{"source": "paper PMC2642990", "about": "“The Glycogen-Binding Domain on the AMPK β Subunit Allows the Kinase to Act as a Glycogen Sensor” (Cell Metabolism, 2009)", "key": {"native rat liver AMPK": {"target": "native rat liver AMPK (Rattus norvegicus, UniProt P80386)", "sequence (P80386 2-270)": "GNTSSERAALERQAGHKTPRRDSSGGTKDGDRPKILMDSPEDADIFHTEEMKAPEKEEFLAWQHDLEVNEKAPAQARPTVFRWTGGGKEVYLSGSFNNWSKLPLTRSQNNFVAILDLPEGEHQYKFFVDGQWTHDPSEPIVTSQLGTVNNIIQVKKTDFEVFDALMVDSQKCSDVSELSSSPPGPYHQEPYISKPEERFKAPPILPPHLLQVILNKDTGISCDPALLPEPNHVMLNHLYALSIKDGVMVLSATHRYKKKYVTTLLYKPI", "sequence (P54645 whole entry partner)": "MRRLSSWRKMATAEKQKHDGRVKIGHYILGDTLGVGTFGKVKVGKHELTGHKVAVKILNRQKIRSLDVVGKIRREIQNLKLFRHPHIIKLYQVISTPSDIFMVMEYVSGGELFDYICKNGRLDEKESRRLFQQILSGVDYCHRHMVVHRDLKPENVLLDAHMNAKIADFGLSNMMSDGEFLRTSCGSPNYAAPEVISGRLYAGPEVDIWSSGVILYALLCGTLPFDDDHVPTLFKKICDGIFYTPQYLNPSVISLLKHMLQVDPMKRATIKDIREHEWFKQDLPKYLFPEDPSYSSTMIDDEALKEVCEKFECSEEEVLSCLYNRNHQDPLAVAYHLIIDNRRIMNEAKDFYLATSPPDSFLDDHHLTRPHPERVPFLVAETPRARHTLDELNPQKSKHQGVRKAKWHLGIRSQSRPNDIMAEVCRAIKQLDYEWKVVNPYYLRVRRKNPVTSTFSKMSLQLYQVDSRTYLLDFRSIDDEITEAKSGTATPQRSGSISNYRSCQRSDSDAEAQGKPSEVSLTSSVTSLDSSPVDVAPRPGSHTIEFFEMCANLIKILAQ", "sequence (Q09137 whole entry partner)": "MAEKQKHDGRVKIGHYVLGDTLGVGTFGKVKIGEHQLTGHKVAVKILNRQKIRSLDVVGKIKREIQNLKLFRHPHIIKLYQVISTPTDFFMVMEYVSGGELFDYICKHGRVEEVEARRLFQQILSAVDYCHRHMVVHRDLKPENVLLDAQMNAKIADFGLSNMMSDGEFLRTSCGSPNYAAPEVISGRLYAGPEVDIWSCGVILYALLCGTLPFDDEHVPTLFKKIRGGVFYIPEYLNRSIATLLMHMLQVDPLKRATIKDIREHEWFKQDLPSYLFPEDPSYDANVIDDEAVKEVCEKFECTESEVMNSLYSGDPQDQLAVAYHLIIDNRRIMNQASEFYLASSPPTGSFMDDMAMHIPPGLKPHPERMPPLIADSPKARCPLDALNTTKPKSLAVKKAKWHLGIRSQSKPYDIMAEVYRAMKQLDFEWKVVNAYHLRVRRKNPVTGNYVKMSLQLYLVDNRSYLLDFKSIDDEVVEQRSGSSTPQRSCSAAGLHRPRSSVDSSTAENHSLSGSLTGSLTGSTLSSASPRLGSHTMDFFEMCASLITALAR", "sequence (P80385 whole entry partner)": "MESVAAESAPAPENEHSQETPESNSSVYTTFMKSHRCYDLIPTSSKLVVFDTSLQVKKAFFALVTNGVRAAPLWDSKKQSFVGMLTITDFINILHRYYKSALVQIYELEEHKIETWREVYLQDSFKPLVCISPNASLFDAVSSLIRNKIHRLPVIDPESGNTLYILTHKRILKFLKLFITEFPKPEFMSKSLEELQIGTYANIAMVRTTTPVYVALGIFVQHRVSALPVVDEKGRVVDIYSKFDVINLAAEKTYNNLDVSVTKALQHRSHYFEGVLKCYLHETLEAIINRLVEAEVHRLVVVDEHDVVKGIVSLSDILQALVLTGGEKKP", "assay": "AMPK kinase assay (SAMS peptide), native rat liver AMPK in solution", "type": "biochemical", "settings": "oligosaccharides; read-out: IC50 / half-maximal effect, inhibition of AMPK", "method": "We next tested the effect of glycogen on the activity of the native AMPK complex purified from rat liver ([Hawley et al., 1996]). […] The bovine liver glycogen inhibited AMPK completely with an IC50 (concentration causing half-maximal inhibition) of 30 ± 9 mM glucose equivalents (Figure 2A).\nFigure 2 Allosteric Inhibition of AMPK by Different Glycogen Preparations (A) Concentration dependence of inhibition of native rat liver AMPK by preparations of bovine and rat liver glycogen; glycogen concentrations expressed as glucose produced after total hydrolysis. Data were fitted to an IC50 equation (see Supplemental Experimental Procedures), and curves were generated using the estimated best-fit parameters. (B) Concentration dependence of inhibition of native rat liver AMPK by bovine liver glycogen in the presence and absence of 200 μM AMP; curves were generated as in (A). (C) Inhibition by bovine liver glycogen of recombinant AMPK complex (myc-α1:β1:γ1) containing full-length (1–270) or truncated β1 subunit lacking the GBD (172–270). Complexes were expressed in CCL13 cells and purified by immunoprecipitation prior to assay with or without glycogen (200 mM glucose equivalents). Data are means ± SEM (n = 3). ^∗Activity different from control without glycogen by t test (p < 0.05). (D) Inhibition by bovine liver glycogen (200 mM glucose equivalents) of purified, native rat liver AMPK (a mixture of α1β1γ1 and α2β1γ1 complexes) that had been recovered by immunoprecipitation (IP) using anti-α1, anti-α2, or a mixture of anti-α1/-α2 antibodies or assayed in solution without immunoprecipitation. Results are expressed as percentages of the activity in controls without glycogen, and data are mean ± SEM (n = 3). (E) Absorption spectra of bovine and rat liver glycogen preparations in complex with iodine. […]\nPurification of Native Rat Liver, AMPK, Recombinant AMPK, and AMPK Assays AMPK was purified from rat liver as far as the gel filtration step (Hawley et al., 1996). The kinase was assayed using the SAMS peptide (Davies et al., 1989). IC50 values for inhibition were estimated by fitting data using GraphPad Prism to the equation: Activity = Residual + Maximum - (Maximum × [Inhibitor]/(IC50+[Inhibitor])) where Residual is the activity in the presence of maximal inhibition, Maximum is the maximal inhibition and [inhibitor] is the concentration of the inhibitory molecule. For recombinant AMPK, constructs encoding myc-tagged α1, β1 and γ1 subunits of AMPK were co-transfected into CCL13 cells using modifications of previous methods (Woods et al., 1996). DNA (10 µg) was dissolved in sterile water (450 µl) to which 50 μl of 2.5 M CaCl2 was added, and the solution vortexed for 1 min. […]"}, "β1-GBD": {"target": "T1, β1-GBD (Rattus norvegicus, UniProt P80386)", "T1 construct": "The rat β1 GBD (residues 70-172 was cloned into pGEX6P2, expressed in Escherichia coli (BL21)); made in house; host or cells: E. coli BL21", "T1 sequence (P80386 70-172)": "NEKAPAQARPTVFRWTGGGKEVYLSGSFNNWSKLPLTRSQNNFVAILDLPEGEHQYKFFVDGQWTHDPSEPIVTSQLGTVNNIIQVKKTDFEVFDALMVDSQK", "assay": "capture of glycogen hydrolysate fragments on GST-β1 GBD affinity column", "type": "binding", "settings": "from partial acid hydrolysate of bovine liver glycogen; eluted with propionic acid", "from_the_text": "In an attempt to establish the chemical nature of the regions of glycogen that bind to the GBD and cause inhibition of the AMPK complex, we carried out partial acid hydrolysis of bovine liver glycogen and utilized the β1 GBD as an affinity matrix to purify hydrolysis products that bound to the GBD. The hydrolysis conditions were chosen to yield a range of oligosaccharides containing up to six glucose units, as detected by high-performance anion exchange chromatography (HPAEC). The hydrolysate was passed down a glutathione Sepharose column to which the GST-GBD had been prebound, and bound oligosaccharides eluted with propionic acid. The eluted oligosaccharides were analyzed by HPAEC (Figure 5A). […] That this disaccharide contained glucose was confirmed by collision-induced dissociation and tandem mass spectrometry (Figure 5B); the product ion spectrum contained a daughter peak at 203, corresponding to the mass of glucose plus one Na^+ ion. […]\nTo 60 μl of the material from HPAEC, 5 μl of 80% (v/v) acetonitrile plus 2% (v/v) formic acid was added. Small aliquots of this solution were transferred to Waters nanotips (Type F; Millipore, Watford, UK) and analyzed by electrospray ionization–mass spectrometry (ES-MS) in negative ion mode on an ABI Q-StarXL spectrometer (Applied Biosystems, Cambridge, UK). […]"}}}
{"smiles": "OC[C@H]1O[C@H](OC[C@H]2OC(O)[C@H](O)[C@@H](O)[C@@H]2O)[C@H](O)[C@@H](O)[C@@H]1O", "note": "(some centres unmarked) [isomaltose]", "values": [{"measurement": "IC50", "setting": "native rat liver AMPK", "value": 16, "unit": "mM"}, {"measurement": "binding to immobilised β1-GBD", "setting": "β1-GBD", "value": "bound to the β1-GBD"}]}
